Data reported in US10919896B2, “Preparation and uses of pyrimidinone derivatives” (Cancer Research Technology Limited, priority 2016, dated 2021).

What was measured:
Cdc7/Dbf4 = Cdc7/Dbf4 (Homo sapiens, UniProt O00311); assay: Cdc7 Biochemical Assay Method 3: Cdc7/Dbf4 Enzyme TR-FRET Assay measuring pS40MCM2; conditions: 1 μM ATP, read-out: Biochemical Method 3 (pIC50) (converted)
Method in brief: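 2.5 nM Cdc7/Dbf4 incubated with 100 nM biotinylated MCM2-derived peptide and 1 μM ATP, 120 minutes at 25° C. Phospho-S40 detected by TR-FRET using anti-pS40 Mcm2 antibody, terbium anti-rabbit secondary and streptavidin-Alexa Fluor488.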

[1] = test system: Cdc7 (pS40MCM2 levels in HCT116 cells); assay: Cdc7 Cell Pharmacodynamics Assay Method 2B: pS40MCM2 levels in HCT116 cells, 18 hours; type: cell-based; conditions: Homo sapiens, HCT-116, read-out: Biomarker Method 2B (pEC50) (converted)
Excerpt: This protocol describes a method to investigate the inhibition of Cdc7 activity by measuring pS40MCM2 levels in cells, after treatment with compounds.
• HCT116 cells (ATCC, #CCL-247) • McCoys 5A with L-glutamine (Cellgro, #10-050-CV) • 10% FCS (Cellgro, #35-010-CV) • D-PBS without CaCl2 and MgCl2 (Cellgro, #21-031-CV) • Trypsin/EDTA (Cellgro, #25-052-CL) • BSA (Calbiochem, 126593) • Cell Extraction Buffer (Invitrogen FNN0011) • Protease inhibitor cocktail (Sigma P-2714) • PMSF 0.3M stock in DMSO (Sigma P7626) • Antibody-rabbit pMCM2 Ser40 (Abcam, AB133243) • Antibody-goat MCM2 (Bethyl #A300-122A) • Antibody-goat Anti Rabbit IgG HRP (Thermo, 31462) • SuperSignal ELISA Pico Chemiluminescent Substrate (Perbio Science UK Ltd 37069) • 10×PBS (Growcells, MRGF-6236) • Triton X100 (Sigma, P-T8787) • DMSO (Fisher, D128-1) • 2-Propanol (J. T. Baker, 9095-03) Method • Seed 1×10^6 HCT116 cells into each of two 175 cm^2 flask containing 30 mL Cell Growth Media and incubate at 37° C., 5% CO2 for 3 days. • Harvest the cells from one T175 cm^2 flask and count. • Dilute with Cell Growth Media to a cell density of 2×10^5. Dispense 100 μL to each well (20,000 HCT116 cells/well) of TC treated 96-well plate(s). • Allow cells to settle overnight in incubator set at 37° C. and 5% CO2. • Cell treatment: Transfer 0.25 μL/well from the compound plate to the wells of the cell plate(s). This is a 1:400 dilution of compound in the assay. • Once all cells are treated place the cells back to the incubator and incubate for either 6 hours (Method 2A) or 18 hours (Method 2B). • Dilute the capture antibody (total MCM2#A300-122A) 1 in 250 in the required volume of PBS (5 mL per assay plate, plus 5 mL for dead volume) and add 50 μL to each well of a Hybond plate except wells A12 & B12. Seal the plate and incubate at room temperature for a minimum of 2 hours. • Defrost aliquot of Invitrogen Cell Extraction Buffer (FNN0011) on ice and supplement with appropriate volume of both Sigma protease inhibitor cocktail (P-2714) and PMSF (final conc 1 mM from a 1 M stock in DMSO). • After the 6 hour or 18 hour cell treatment time, tap out the media from the assay plates and place them in the −70° C. freezer for at least 5 minutes. • Flick out the remaining liquid in the previously prepared capture Ab plate(s) and add 200 μL 2% BSA per well. Incubate for 1 hour at room temperature. • Remove plates from freezer and add 20 μL of ice cold complete lysis buffer. Incubate cells for 30 minutes at 4° C. • Add 30 μL per well 2% BSA • At the end of the 1 hour incubation, wash the Capture/ELISA plate(s) with Wash Buffer on the BioTek plate washer. • Transfer 40 μL per well of the lysis plate(s) to the same wells in the Capture/ELISA plate. Incubate cells overnight at 4° C. • At the end of the overnight incubation, wash the ELISA plate(s) with Wash Buffer on BioTek plate washer. • Prepare Detection Antibody Buffer and dispense 50 μL to all wells of ELISA plate(s) except wells G1 & H1. Cover plate and incubate at room temperature for 2 hours with gentle shaking. • At the end of the 2 hour incubation, wash the ELISA plate(s) with Wash Buffer on the BioTek plate washer. • Prepare the Conjugated Antibody Buffer and dispense 50 μL to all wells of ELISA plate(s). • Cover the plate and incubate at room temperature for 1 hour with gentle shaking. • At the end of the 1 hour incubation, wash the ELISA plate(s) with Wash Buffer on the BioTek plate washer. • Prepare Substrate Buffer and dispense 50 μL to all wells of ELISA plate(s). • Incubate for a minimum of 10 minutes and read plates on the EnVision 2100 Multilabel Reader (Mirror: Luminescence (404) & Luminescence 700 (212); Measurement Height: 6.5 mm; Measurement Time: 0.2 s). Method 3

[2] = test system: Cdc7 (pS53MCM2 levels in HCT116 cells); assay: Cdc7 Cell Pharmacodynamics Assay Method 1: pS53MCM2 levels in HCT116 cells, 6 hours; type: cell-based; conditions: for EC50: Homo sapiens, HCT-116, 6 h, read-out: Biomarker Method 1 (pEC50) (converted)
Excerpt: This protocol describes a method to investigate the inhibition of Cdc7 activity of compounds by measuring pS53MCM2 levels in cells after treatment.
• HCT116 cells (wild type P53 positive) • McCoys 5A media (PAA Laboratories Ltd, E15-022) • 10% FCS (Sera Laboratories International Ltd, EU000F Batch:108005) • 100× L-Glutamine (Invitrogen, 25030-024) • D-PBS without CaCl2 and MgCl2 (Invitrogen, ref 14190-094) • Trypsin/EDTA (Invitrogen 25300-054) • 2% BSA in PBS • Cell Extraction Buffer (Invitrogen FNN0011) • Protease inhibitor cocktail (Sigma P-2714) • PMSF 0.3M stock in DMSO (Sigma P7626) • Antibody-rabbit pMCM2 Ser53 (Bethyl #A300-756A) • Antibody-goat MCM2 (Bethyl #A300-122A) • Antibody-goat Anti Rabbit IgG HRP (Perbio Science UK Ltd 31462) • 1×PBS • FACE Wash buffer (0.02% Triton X100 in 1×PBS) • SuperSignal ELISA Pico Chemiluminescent Substrate (Perbio Science UK Ltd 37070) Method • 72 hours prior to the start of the experiment plate 1×10^6 HCT 116 cells in a 150 cm^2 flask in complete McCoys 5A media (+10% FCS+1× L-glutamine). • Plate 20,000 HCT116 cells per well in standard TC treated 96 well plate in 100 μL complete McCoys 5A media. • Allow cells to settle overnight in incubator set at 37° C. and 5% CO2. • Remove intermediate plate from fridge and place at 37° C. overnight to allow to equilibrate. • Cell treatment: cell assay plate 100 μL; daughter to cell transfer volume 3.33 μL; daughter volume 45 μL; mother plate to daughter volume 5 μL. • Once all cells are treated remove the cells to the incubator and incubate for 6 hours. • Dilute the capture antibody (total MCM2#A300-122A) 1 in 250 in the required volume of PBS (5 mL per assay plate) and add 50 μL to each well of a Hybond plate excluding wells 12E to 12H. In these wells add 50 μL PBS. Seal the plate and incubate at room temperature for a minimum of 2 hours. • Defrost aliquot of Invitrogen Cell Extraction Buffer (FNN0011) on ice and supplement with appropriate volume of both Sigma protease inhibitor cocktail (P-2714) and PMSF (final conc 1 mM from a 1 M stock in DMSO). • After the 6 hour cell treatment time tap out the media from the assay plates and place them in the −70° C. freezer for at least 5 minutes. • Remove plates from freezer and add 20 μL of ice cold complete lysis buffer on ice. Incubate cells for 30 minutes at 4° C. • Add 80 μL per well 2% BSA. • Transfer 80 μL from the lysis plate to the same wells in the capture/ELISA plate. Cover with plate seal and incubate plates overnight at 4° C. • Wash plates with PBS, remove any residual remaining liquid and add 50 μL per well of pMCM2 Ser53 antibody (#A300-756A) diluted 1 in 100 in 2% BSA. Cover plate and incubate at room temperature for 2 hours with gentle shaking. • Wash plates with PBS, remove any residual remaining liquid and Incubate with 50 μL goat anti rabbit antibody (1 in 800 dilution in 2% BSA) for 1 hour at room temperature. • Wash plates with PBS, remove any residual remaining liquid and add 50 μL mixed SuperSignal Pico substrate. • Incubate each plate for 5 minutes at room temperature shielding the plates from direct light (with a cover plate). Read plates with the luminescent detection. Method 2A and 2B

Cdc7/ASK = Cdc7/ASK (Homo sapiens, UniProt O00311); assay: Cdc7 Biochemical Assay Method 1: 384 well ELISA, whole protein substrate MCM2, antibody against Phospho MCM2 (S53); design: purchased; conditions: 2 μM ATP, read-out: Biochemical Method 1 (pIC50) (converted)
Chain of Cdc7/ASK (O00311 whole entry): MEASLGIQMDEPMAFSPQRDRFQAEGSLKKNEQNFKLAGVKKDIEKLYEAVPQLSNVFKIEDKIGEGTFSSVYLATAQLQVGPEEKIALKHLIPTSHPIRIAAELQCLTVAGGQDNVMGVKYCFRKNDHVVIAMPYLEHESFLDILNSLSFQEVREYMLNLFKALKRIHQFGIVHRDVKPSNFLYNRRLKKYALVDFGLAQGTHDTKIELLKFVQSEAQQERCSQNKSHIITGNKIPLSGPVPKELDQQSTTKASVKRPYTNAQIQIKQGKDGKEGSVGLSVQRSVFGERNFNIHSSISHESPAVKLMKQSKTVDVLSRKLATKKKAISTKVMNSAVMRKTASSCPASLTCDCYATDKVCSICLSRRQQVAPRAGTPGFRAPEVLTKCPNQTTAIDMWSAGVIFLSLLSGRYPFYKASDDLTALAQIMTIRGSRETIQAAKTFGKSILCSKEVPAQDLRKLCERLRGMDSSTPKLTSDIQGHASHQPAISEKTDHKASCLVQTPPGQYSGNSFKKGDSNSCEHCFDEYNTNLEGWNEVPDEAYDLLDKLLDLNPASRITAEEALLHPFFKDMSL
Chain of Cdc7/ASK (Q9UBU7 whole entry partner): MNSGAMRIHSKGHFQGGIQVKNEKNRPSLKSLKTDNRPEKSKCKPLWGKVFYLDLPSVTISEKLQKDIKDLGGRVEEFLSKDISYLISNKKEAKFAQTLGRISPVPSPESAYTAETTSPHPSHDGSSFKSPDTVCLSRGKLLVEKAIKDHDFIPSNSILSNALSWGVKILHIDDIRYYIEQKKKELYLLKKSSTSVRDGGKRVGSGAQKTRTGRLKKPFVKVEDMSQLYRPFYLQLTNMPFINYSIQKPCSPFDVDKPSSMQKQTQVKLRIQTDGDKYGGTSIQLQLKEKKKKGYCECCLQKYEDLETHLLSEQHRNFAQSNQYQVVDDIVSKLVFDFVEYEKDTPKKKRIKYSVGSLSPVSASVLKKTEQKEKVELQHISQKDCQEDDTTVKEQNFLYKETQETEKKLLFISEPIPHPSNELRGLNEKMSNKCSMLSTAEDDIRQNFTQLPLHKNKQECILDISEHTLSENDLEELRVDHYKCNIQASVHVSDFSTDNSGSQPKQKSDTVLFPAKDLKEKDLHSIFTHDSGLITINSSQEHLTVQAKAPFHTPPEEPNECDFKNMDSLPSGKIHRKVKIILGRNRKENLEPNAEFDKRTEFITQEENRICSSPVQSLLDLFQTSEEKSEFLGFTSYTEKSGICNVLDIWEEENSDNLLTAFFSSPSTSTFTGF
Method in brief: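 MCM2 protein substrate was coated on nickel-chelate plates, then Cdc7/ASK was added with 2 μM ATP in 50 mM Tris-HCl pH 8.5, 10 mM MgCl2, 1 mM DTT, 4% DMSO, 90 min at room temperature. Phospho-MCM2 (S53) was detected by ELISA with an AP secondary and PNPP absorbance. IC50 was derived from % inhibition versus no-compound and no-enzyme controls.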

Chain of Cdc7/Dbf4 (O00311 whole entry): as the sequence (O00311 whole entry) above
Chain of Cdc7/Dbf4 (Q9UBU7 whole entry partner): as the sequence (Q9UBU7 whole entry partner) above

Row | Compound | IC50 (Cdc7/Dbf4) [nM] | EC50 [1] [nM] | EC50 [2] [nM] | IC50 (Cdc7/ASK) [nM] | Biomarker Method 1 (pEC50) [2]
1 | C[C@@H]1CN(c2nc(-c3ccnc(F)c3)[nH]c(=O)c2Cl)CCO1 [Compound 337] | 1.12 | 372 |  |  | 
2 | CN(C)[C@H]1CCN(c2nc(-c3ccnc(F)c3)[nH]c(=O)c2Cl)C1 [Compound 272] | 5.5 | 501 |  |  | 
3 | N#C[C@@H]1CNCCN1c1nc(-c2ccnc(F)c2)[nH]c(=O)c1Cl [Compound 345] | 1.29 | 1740 |  |  | 
4 | O=c1[nH]c(-c2ccnc(F)c2)nc(N2CCN3CCC2CC3)c1Cl [Compound 293] | 0.363 | 29.5 |  |  | 
5 | C[C@H]1CN(c2nc(-c3ccncc3)[nH]c(=O)c2Cl)CCN1C [Compound 88] |  |  | 107 | 14.1 | 
6 | O=c1[nH]c(-c2ccncc2)nc(N2CCC(C(F)(F)F)C2)c1Cl (stereo not shown) [Compound 135] |  |  | 661 | 23.4 | 
7 | O=c1[nH]c(-c2ccncc2)nc(N2C3CCCC2COC3)c1Cl [Compound 154] |  |  | 63.1 | 2.45 | 
8 | C#CCN1CCN(c2nc(-c3ccncc3)[nH]c(=O)c2Cl)CC1 [Compound 150] |  |  | 427 | 14.1 | 
9 | O=c1[nH]c(-c2ccncc2)nc(N2CCN(CC(F)(F)C(F)F)CC2)c1Cl [Compound 152] |  |  | 871 | 19.5 | 
10 | O=c1[nH]c(-c2ccncc2)nc(N2CCN(c3cccc(F)c3)CC2)c1Cl [Compound 111] |  |  | 759 | 16.2 | 
11 | O=C(OCc1ccccc1)N1CCN(c2nc(-c3ccncc3)[nH]c(=O)c2Cl)CC1 [Compound 112] |  |  | 759 | 6.17 | 
12 | C[C@@H]1CN(c2nc(-c3ccncc3)[nH]c(=O)c2Cl)[C@H](C)CN1 [Compound 166] |  |  | 2820 | 35.5 | 
13 | O=c1[nH]c(-c2ccncc2)nc(N2CCNC(C(F)(F)F)C2)c1Cl (stereo not shown) [Compound 101] |  |  | 44.7 | 4.37 | 
14 | CC1CN(c2nc(-c3ccncc3)[nH]c(=O)c2Cl)CCN1C (stereo not shown) [Compound 28] |  |  | 191 | 11.2 | 
15 | O=c1[nH]c(-c2ccncc2)nc(N2CCCN(CC(F)(F)F)CC2)c1Cl [Compound 142] |  |  | 661 | 15.5 | 
16 | CC(C)(C)[C@H]1CN(c2nc(-c3ccncc3)[nH]c(=O)c2Cl)CCN1 [Compound 157] |  |  | 79.4 | 2.95 | 
17 | O=c1[nH]c(-c2ccncc2)nc(N2CCN[C@@H](Cc3ccccc3)C2)c1Cl [Compound 164] |  |  | 724 | 20.9 | 
18 | CS(=O)(=O)N1CCCN(c2nc(-c3ccncc3)[nH]c(=O)c2Cl)CC1 [Compound 145] |  |  | 269 | 2.51 | 
19 | O=c1[nH]c(-c2ccncc2)nc(N2CCCC(CO)C2)c1Cl (stereo not shown) [Compound 123] |  |  | 224 | 9.33 | 
20 | COc1ccc(C2CN(c3nc(-c4ccncc4)[nH]c(=O)c3Cl)CCN2)cc1 (stereo not shown) [Compound 169] |  |  | 562 | 30.2 | 
21 | O=c1[nH]c(-c2ccncc2)nc(N2CCC(F)CC2)c1Cl [Compound 106] |  |  | 70.8 | 7.59 | 
22 | CC1(C)CN(c2nc(-c3ccncc3)[nH]c(=O)c2Cl)CCN1 [Compound 361] |  |  | 2400 | 2.34 | 
23 | CC1CC(C)CN(c2nc(-c3ccncc3)[nH]c(=O)c2Cl)C1 (stereo not shown) [Compound 103] |  |  | 1150 | 29.5 | 
24 | O=c1[nH]c(-c2ccncc2)nc(N2CCC(F)(F)CC2)c1Cl [Compound 127] |  |  | 224 | 45.7 | 
25 | O=c1[nH]c(-c2ccncc2)nc(N2CCCC(F)(F)C2)c1Cl [Compound 132] |  |  | 33.9 | 1.95 | 
26 | CC(C)C1CN(c2nc(-c3ccnc(F)c3)[nH]c(=O)c2Cl)CCN1 (stereo not shown) [Compound 310] |  |  | 58.9 | 3.47 | 
27 | CC1CCCN(c2nc(-c3ccncc3)[nH]c(=O)c2Cl)C1 (stereo not shown) [Compound 105] |  |  | 427 | 14.1 | 
28 | CC(C)(C)[C@H]1CN(c2nc(-c3ccnc(F)c3)[nH]c(=O)c2Cl)CCN1.Cl [Compound 160] |  |  |  | 1.62 | 7.50
29 | O=c1[nH]c(-c2ccncc2)nc(N2CCSCC2)c1Cl [Compound 128] |  |  | 79.4 | 2.57 | 
